Read-outs that look alike come from different tables or passages of the source.
Columns and labels:
CYP2B6 = target: T1, CYP2B6 (Homo sapiens, UniProt P20813); assay: Cytochrome P450 inhibition assay, CYP2B6; format: in vitro ADME; details: pooled human liver microsomes, probe Bupropion
T1 construct: from tissue; host or cells: pooled human liver microsomes
T1 sequence (P20813 1-491): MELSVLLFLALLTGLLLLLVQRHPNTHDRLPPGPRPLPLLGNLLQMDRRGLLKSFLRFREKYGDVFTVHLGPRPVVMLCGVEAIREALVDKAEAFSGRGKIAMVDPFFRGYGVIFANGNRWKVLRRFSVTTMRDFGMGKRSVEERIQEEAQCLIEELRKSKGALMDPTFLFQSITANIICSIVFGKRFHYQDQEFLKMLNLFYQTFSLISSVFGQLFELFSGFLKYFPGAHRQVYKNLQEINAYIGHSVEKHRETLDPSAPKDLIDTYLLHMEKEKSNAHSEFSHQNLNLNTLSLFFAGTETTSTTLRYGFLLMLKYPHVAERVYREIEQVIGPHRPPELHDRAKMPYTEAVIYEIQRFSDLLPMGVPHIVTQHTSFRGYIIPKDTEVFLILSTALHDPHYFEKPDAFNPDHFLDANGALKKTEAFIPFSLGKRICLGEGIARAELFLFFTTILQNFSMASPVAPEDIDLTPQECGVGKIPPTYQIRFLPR
Experimental: (§1) The susceptibility of Compounds (2) and (3) to potential drug-drug interactions was tested by assaying their abilities to inhibit various cytochrome P450 isoforms. Prior art Compound B (see Example 3 above) was also tested as a comparative example. Test compounds, prepared and serially diluted in DMSO, were incubated at six concentrations (1% DMSO final) with pooled human liver microsomes in the presence of probe substrate for each isoform, and their effects on the metabolism of probe substrates determined. Incubations (in 96-well plates) were carried out at 37° C. in 0.1 M Tris buffer, pH 7.4, with reactions initiated by the addition of cofactor, NADPH (1 mM final concentration). At the specified times, reactions were terminated with acetonitrile containing an analytical internal standard, samples were centrifuged and the supernatant fractions were analysed for probe substrate metabolites by mass spectrometry (LC-MS/MS). The instrument responses were normalised to internal standard and compared to the appropriate solvent controls to determine the amount of metabolite formed from the probe substrates relative to these “uninhibited” controls. […] [table]

CYP2C19 = target: T2, CYP2C19 (Homo sapiens, UniProt P33261); assay: Cytochrome P450 inhibition assay, CYP2C19; format: in vitro ADME; details: pooled human liver microsomes, probe S-(+)-Mephenytoin
T2 construct: from tissue; host or cells: pooled human liver microsomes
Experimental: as §1

CYP2C9 = target: T3, CYP2C9 (Homo sapiens, UniProt P11712); assay: Cytochrome P450 inhibition assay, CYP2C9; format: in vitro ADME; details: pooled human liver microsomes, probe Diclofenac
T3 construct: from tissue; host or cells: pooled human liver microsomes
Experimental: as §1

CYP2D6 = target: T4, CYP2D6 (Homo sapiens, UniProt P10635); assay: Cytochrome P450 inhibition assay, CYP2D6; format: in vitro ADME; details: pooled human liver microsomes, probe Dextromethorphan
T4 construct: from tissue; host or cells: pooled human liver microsomes
Experimental: as §1

hERG potassium channel = target: T5, hERG potassium channel (Homo sapiens, UniProt Q12809); assay: hERG channel inhibition assay (hERG-HEK cells, Sophion Qube); format: cell-based; details: for IC50: hERG-HEK cells, tail current, room temperature; for inhibition at 30 uM: human, hERG-HEK stably transfected cell line, Max Conc. 30 uM
T5 construct: expressed in transfected cells; host or cells: hERG-HEK stably transfected cell line
Experimental: The potential for compounds to inhibit the hERG potassium channel was determined using a hERG-HEK stably transfected cell line on the Sophion Qube automated electrophysiology platform. The assay was performed at room temperature and recordings of the hERG tail current from individual cells was made using single-hole QChips.
The potency (IC50) of test compounds to inhibit the hERG channel was determined from a concentration-response curve generated from 8 test compound concentrations with up to 4 replicates per concentration.
The compound concentration was added to the test well twice to ensure complete exchange of the external buffer with the test compound. In total, compound was applied to the well for >7 minutes.

[1] = Hepatocyte stability assay, rat; format: in vitro ADME; details: male, Sprague-Dawley, pooled hepatocytes, 37° C.
Experimental: Test and control compounds were incubated with hepatocytes at 37° C. Aliquots were removed at 6 timepoints over a one hour period. Samples were centrifuged and the supernatant fractions analysed for parent compound by mass spectrometry (LC-MS/MS).
The amount of compound remaining (expressed as %) was determined from the MS response in each sample relative to that in the T=0 samples, and used to determine the half-life and intrinsic clearance of the compound.

[2] = system: STAT3 phosphorylation in Th17 cells; assay: Inhibition of STAT3 phosphorylation in Th17 cells derived from human peripheral blood CD4CD45RO+ cells; format: cell-based
Experimental: Fresh human Peripheral blood CD4CD45RO+ cells were purchased commercially (Generon, UK); 3 separate vials from 3 different volunteers for experimental replicates. Cells were grown in T-cell medium (Thermo Fisher) containing 10 ng/ml recombinant human IL-1B (R&D Systems), IL-23 (R&D Systems), TGF-B1 (R&D Systems) and 50 ng/ml IL-6 (R&D Systems) together with anti-CD3/CD28 magnetic Dynabeads (Thermo Fisher). These were grown for 11 days to induce expansion of Th17 cells. Prior to plating for assays cells were grown overnight in T-cell medium supplemented with human serum (1%) overnight. Media was removed and replaced with unsupplemented RPMI for 4 h prior to assay.
To measure pSTAT3 levels, 200,000 cells were plated into a 96 well plate and preincubated with compounds for 30 minutes followed by stimulation with recombinant IL-23 at 12.5 ng/ml for 15 minutes then lysed using cell lysis buffer. pSTAT3 levels in the lysates were measured using a commercially available ELISA kit (Thermo Fisher; 85-86102-11).
ELISAs were carried out according to manufacturers instructions and absorbance read using a microplate reader (Thermo Fisher; Varioskan). Data was normalised to the response in untreated samples using the formula: % of control=((Stimulated sample Conc.−unstimulated sample Conc.)×100)/(Control stimulated Conc.−control unstimulated Conc.)
Graphpad Prism 8.1.0 was used to calculate I050 values using a Nonlinear 4 parameter logistic regression model (4PL).

JAK1 = JAK1 (Homo sapiens, UniProt P23458); assay: JAK1 kinase inhibition assay (33P-ATP filter binding, Reaction Biology)
[3] = 0.25 h, IL-23 12.5 ng/ml, 15 minutes, Donor 1, read-out: Inhibition of STAT3 phosphorylation IC50, Donor 1
[4] = 0.25 h, IL-23 12.5 ng/ml, 15 minutes, Donor 2, read-out: Inhibition of STAT3 phosphorylation IC50, Donor 2
[5] = 0.25 h, IL-23 12.5 ng/ml, 15 minutes, Donor 3, read-out: Inhibition of STAT3 phosphorylation IC50, Donor 3
[6] = average of 3 donors, read-out: Inhibition of STAT3 phosphorylation IC50, Average

T2 sequence (P33261 whole entry): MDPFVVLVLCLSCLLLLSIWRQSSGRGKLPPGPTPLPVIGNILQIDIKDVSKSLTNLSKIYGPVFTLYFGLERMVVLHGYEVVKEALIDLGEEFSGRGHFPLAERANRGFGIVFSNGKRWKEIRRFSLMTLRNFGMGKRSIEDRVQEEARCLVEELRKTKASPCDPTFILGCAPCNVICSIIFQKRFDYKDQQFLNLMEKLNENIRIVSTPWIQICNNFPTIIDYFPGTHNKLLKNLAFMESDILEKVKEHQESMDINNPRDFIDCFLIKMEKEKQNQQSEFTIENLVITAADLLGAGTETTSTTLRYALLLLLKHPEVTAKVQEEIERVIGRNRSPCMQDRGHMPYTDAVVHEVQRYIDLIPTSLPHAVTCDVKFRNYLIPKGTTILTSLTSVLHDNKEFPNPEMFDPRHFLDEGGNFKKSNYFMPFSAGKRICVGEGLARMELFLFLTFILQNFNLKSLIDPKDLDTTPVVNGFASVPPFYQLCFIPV
T3 sequence (P11712 whole entry): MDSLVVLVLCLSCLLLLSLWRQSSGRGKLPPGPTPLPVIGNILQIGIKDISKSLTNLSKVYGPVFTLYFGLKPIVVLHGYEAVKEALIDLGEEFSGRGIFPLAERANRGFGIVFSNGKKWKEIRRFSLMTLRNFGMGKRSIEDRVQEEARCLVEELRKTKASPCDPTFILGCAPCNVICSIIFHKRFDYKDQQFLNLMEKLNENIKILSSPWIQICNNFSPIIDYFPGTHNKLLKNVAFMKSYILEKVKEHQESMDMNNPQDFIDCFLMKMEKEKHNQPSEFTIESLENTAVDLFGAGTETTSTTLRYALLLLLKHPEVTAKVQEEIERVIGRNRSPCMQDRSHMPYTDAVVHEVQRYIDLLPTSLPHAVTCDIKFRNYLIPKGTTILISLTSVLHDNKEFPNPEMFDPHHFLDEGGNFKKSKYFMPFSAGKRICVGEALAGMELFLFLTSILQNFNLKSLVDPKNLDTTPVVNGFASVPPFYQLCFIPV
T4 sequence (P10635 whole entry): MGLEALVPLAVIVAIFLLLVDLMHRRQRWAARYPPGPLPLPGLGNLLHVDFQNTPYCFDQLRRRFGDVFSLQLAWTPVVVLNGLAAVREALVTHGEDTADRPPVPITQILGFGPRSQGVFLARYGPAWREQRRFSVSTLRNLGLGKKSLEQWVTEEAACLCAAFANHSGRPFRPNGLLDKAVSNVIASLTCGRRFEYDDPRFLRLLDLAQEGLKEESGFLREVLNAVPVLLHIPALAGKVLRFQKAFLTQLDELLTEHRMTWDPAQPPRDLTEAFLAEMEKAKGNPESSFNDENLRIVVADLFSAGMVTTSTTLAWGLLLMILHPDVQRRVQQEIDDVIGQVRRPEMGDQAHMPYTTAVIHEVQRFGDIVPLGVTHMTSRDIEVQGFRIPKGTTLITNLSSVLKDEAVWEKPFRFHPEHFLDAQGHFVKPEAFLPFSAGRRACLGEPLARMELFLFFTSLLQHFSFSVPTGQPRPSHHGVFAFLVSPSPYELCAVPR
JAK1, sequence (P23458 866-1154): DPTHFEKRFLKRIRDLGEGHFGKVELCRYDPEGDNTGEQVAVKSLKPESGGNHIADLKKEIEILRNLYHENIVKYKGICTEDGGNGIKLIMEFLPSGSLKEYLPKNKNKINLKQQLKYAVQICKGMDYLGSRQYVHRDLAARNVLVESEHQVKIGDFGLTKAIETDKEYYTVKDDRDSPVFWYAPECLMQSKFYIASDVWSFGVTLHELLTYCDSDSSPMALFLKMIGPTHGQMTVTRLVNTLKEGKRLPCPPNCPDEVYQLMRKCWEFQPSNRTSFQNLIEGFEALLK
T5 sequence (Q12809 whole entry): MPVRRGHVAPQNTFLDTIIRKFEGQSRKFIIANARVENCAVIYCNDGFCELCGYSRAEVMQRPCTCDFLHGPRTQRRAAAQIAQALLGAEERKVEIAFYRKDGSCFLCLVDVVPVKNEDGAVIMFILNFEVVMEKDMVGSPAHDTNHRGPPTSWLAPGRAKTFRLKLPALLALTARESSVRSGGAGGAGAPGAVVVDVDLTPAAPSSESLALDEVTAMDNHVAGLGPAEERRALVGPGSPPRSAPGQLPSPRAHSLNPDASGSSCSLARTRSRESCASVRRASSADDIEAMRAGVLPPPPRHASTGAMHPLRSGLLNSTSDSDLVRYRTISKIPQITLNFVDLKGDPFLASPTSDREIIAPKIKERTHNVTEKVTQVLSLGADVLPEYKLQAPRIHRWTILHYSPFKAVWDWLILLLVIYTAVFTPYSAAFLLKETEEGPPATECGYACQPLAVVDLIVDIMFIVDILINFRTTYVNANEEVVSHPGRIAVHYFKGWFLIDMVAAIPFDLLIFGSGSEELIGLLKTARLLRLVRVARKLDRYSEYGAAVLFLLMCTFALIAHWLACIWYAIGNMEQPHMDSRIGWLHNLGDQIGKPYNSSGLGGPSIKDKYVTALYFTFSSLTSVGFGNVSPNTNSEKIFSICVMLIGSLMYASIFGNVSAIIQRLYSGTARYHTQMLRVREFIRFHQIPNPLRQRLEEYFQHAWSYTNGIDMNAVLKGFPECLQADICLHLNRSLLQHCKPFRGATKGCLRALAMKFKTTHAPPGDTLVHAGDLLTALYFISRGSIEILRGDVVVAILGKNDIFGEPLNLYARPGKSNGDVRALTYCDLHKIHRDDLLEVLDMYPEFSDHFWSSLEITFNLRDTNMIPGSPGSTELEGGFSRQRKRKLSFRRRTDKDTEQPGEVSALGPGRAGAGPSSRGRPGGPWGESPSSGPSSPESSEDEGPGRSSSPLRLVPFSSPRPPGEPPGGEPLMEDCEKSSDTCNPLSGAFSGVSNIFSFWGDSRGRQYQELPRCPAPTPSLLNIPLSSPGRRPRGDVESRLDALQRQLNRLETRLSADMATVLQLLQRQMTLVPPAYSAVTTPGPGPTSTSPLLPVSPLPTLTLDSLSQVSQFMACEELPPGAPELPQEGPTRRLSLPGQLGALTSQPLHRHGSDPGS

| IC50 (CYP2B6) [nM] | IC50 (CYP2C19) [nM] | IC50 (CYP2C9) [nM] | IC50 (CYP2D6) [nM] | hepatocyte CLint [1] [µL/min/1e6 cells] | IC50 [2, 3] [nM] | IC50 [2, 4] [nM] | IC50 [2, 5] [nM] | IC50 [2, 6] [nM] | IC50 (JAK1) [nM] | half-life ([1]; read-out: Rat T1/2) [min] | Selectivity v TYK2: JAK1 (JAK1; ratio of JAK1 IC50 to TYK2 IC50) | Compound | IC50 (hERG potassium channel) [nM] | inhibition at 30 uM (hERG potassium channel) [%] |
| --- | --- | --- | --- | --- | --- | --- | --- | --- | --- | --- | --- | --- | --- | --- |
| > 30000 | > 30000 | 4400 | > 30000 | 104 | 111 | 17 | 54 | 61 | 26 |  |  | NC(=O)c1nc(-c2c(Cl)cccc2Cl)oc1Nc1ccc(C(=O)N2CCOCC2)cc1 [Comparative Compound B, 2-(2,6-dichloro-phenyl)-5-[4-(morpholine-4-carbonyl)-phenylamino]-oxazole-4-carboxylic acid amide, reference compound] | ~30000 | 50.5 |
| > 30000 | > 30000 | 26000 | > 30000 | 50 | 69 | 29 | 55 | 51 | 20 |  |  | NC(=O)c1nc(-c2c(Cl)cccc2Cl)oc1Nc1ccc(C(=O)N2CCS(=O)(=O)CC2)cc1 [Compound (2)] | > 30000 | 38.6 |
| > 30000 | 29000 | > 30000 | > 30000 | 53.8 | 157 | 29 | 91 | 92 | 51 | 28.5 | 10.9 | NC(=O)c1nc(-c2c(Cl)cccc2Cl)oc1Nc1ccc(C(=O)N2CCS(=O)(=O)CC2)c(F)c1 [Compound (3)] | > 30000 | 31.5 |
